Experimental findings from article PMC10590056, “Design and synthesis of cabotegravir derivatives bearing 1,2,3-triazole and evaluation of anti-liver cancer activity” (Frontiers in Pharmacology, 2023) are described below.

This experiment concerns HepG2 cells. Briefly: Transwell invasion assay (Matrigel). Format: cell-based. The conditions noted are these: HepG2, 24 h treatment, vs control. As to the method: HepG2 cells were treated with either KJ-5 or KJ-12 for 24 h. Then, the cells were suspended and seeded into the upper chamber of a 24-well Transwell plate (Corning Inc., United States) in serum-free medium. The cells were cultured for 24 h at 37°C; a medium containing 20% FBS as a chemoattractant was added to the lower chamber. HepG2 cells that had invaded through the membrane were fixed with 4% paraformaldehyde for 20 min and stained with 0.1% crystal violet. Five random fields were then imaged and quantified using an inverted fluorescence microscope (Axio Observer3, Germany). To assess invasion, transwell assays were performed in a similar manner, with the exception of coating the upper chamber of the Transwell with 100 μL of diluted Matrigel solution per well.

SMILES strings stand for the structures.

For the compound `COc1c2n(cc(C(=O)Nc3cccc(-c4cn(-c5cc(C(F)(F)F)cc(C(F)(F)F)c5)nn4)c3)c1=O)C[C@H]1OC[C@H](C)N1C2=O` [KJ-5], the “Invasion of HepG2 cells (transwell with Matrigel)” value is given as “significantly impaired”.
Turning to `COc1c2n(cc(C(=O)Nc3cccc(-c4cn(-c5c(C)cc(C)cc5C)nn4)c3)c1=O)C[C@H]1OC[C@H](C)N1C2=O` [KJ-12], the “Invasion of HepG2 cells (transwell with Matrigel)” value is listed as “significantly impaired”.
